29 compounds from patent US10159268B2, “Reduced sodium food products” (GENERAL MILLS, INC., priority 2013, dated 2018) can be followed below.

The nature of test [1]: Broth DAP test: trained panel rates saltiness of compounds in simple broth. The test is classed as in vivo. The arrangement: key: DAP score; >7.6 indicates saltiness or salt enhancement in broth. The note with it: single compound in simple broth; best DAP score of tested concentrations 0.1, 1 and 10 ppm; DAP score greater than 7.6 indicates saltiness or salt enhancement. How it is done:
(§1) Briefly, each individual tested compound was placed in water and in sodium solution to test saltiness and saltiness enhancement potential. Tests in water were executed in a compound concentration of 10 ppm. Tests in sodium solution were executed in compound concentrations of 0.1, 1 and 10 ppm. Two control sodium solutions with known organoleptic salt intensities were provided as references for each test. The test for individual compounds was also conducted using simple broth instead of sodium solution. A number of compound combinations identified from the Na-solution DAP test were used for the broth DAP test. Tests were executed with a trained panel of 9-12 assessors. For Na-solution DAP tests, a DAP score of greater than 3.1 indicates saltiness or salt enhancement. The DAP score can be correlated with a sodium reduction potential by subtracting 3.1 from the DAP score. […] For broth DAP tests, a DAP score of greater than 7.6 indicates saltiness or salt enhancement. The DAP score can be correlated with a sodium reduction potential by subtracting 7.6 from the DAP score.

A short description of test [2]: Na-solution DAP test: trained panel rates saltiness of compounds in sodium solution. The note with it: single compound in sodium solution; best DAP score of tested concentrations 0.1, 1 and 10 ppm; DAP score greater than 3.1 indicates saltiness or salt enhancement. The test is classed as in vivo. The arrangement: key: DAP score; >3.1 indicates saltiness or salt enhancement. The protocol: as §1

As to `CCCC(=O)c1c(OC)cc(OC)c(CCO)c1O` [Compound 54], the “DAP in Broth” value in test [1] is on record as 8.1. For the same compound, in test [2], the “DAP in Na-Sol.” value stood at 3.4.
The like results for Brevifolin [Compound 53] were, in that order, 8.5 and 3.7.
As for “a pentadecatrienyl-1,3-benzenediol [Compound 10]”, the “DAP in Broth” value in test [1] is reported as 7.9. For the same compound, the “DAP in Na-Sol.” value in test [2] was 3.9.
The like results for `C=C[C@@]1(C)CC(=O)C2[C@]3(C)C(C[C@@H](O)[C@@]2(O)C1=O)C(C)(C)[C@H](OC(C)=O)[C@H](OC(C)=O)[C@@H]3OC(=O)c1ccccc1` (stereo partly shown) [Compound 32, Orthosiphol I] were, in that order, 8.1 and 3.5.
The like results for `CC(C)CNC(=O)/C=C/C=C/CCCCCC/C=C/c1ccc2c(c1)OCO2` [Compound 15, Guineensine] were, in that order, 8.1 and 3.5.
The corresponding values for `COc1cc(C[C@@H](CO)[C@H](CO)Cc2ccc(O[C@@H]3O[C@H](CO)[C@@H](O)[C@H](O)[C@H]3O)c(OC)c2)ccc1O` [Compound 48, Secoisolariciresinol; Secoisolariciresin-4-yl b-D-glucopyranoside] are 7.8 and 3.7.
In the case of `CC1(C)CC2C1CCC1(C)CC2(O)CCC1O` (stereo not shown) [Compound 56, Senecrassidiol], in test [1], the “DAP in Broth” value is 7.7. Besides, in test [2], the “DAP in Na-Sol.” value stood at 4.
Take `CC(C)=CCOc1c2occc2cc2ccc(=O)oc12` [Compound 64, Imperatorin]: the “DAP in Broth” value in test [1] turned out to be 7.8. Moreover, in test [2], the “DAP in Na-Sol.” value is on record as 3.7.
The like results for `COc1cc(C2c3cc4c(cc3CC3COC(=O)C32)OCO4)cc(OC)c1OC` (stereo not shown) [Compound 59, Isoanthricin] were, in that order, 7.9 and 3.3.
The like results for `CC(=O)OC1C(O)COC(OC2C(O)C(C)OC(OC(C)(CCC=C(C)C)C3C(O)CC4(C)C3CCC3C5(C)CCC(OC6OCC(O)C(O)C6O)C(C)(C)C5CCC34C)C2O)C1O` (stereo not shown) [Compound 38] were, in that order, 8.1 and 3.9.
The like results for `CCC=CC(=O)CCc1ccccc1` [Compound 11, a 1-Ph-4-hepten-3-one] were, in that order, 8.1 and 2.6.
With `CC(=O)OC1CCC2(C)C(COc3ccc4ccc(=O)oc4c3)C(C)(O)CCC2C1(C)C` (stereo not shown) [Compound 66, terpenoid coumarins], the “DAP in Broth” value in test [1] is reported as 7.8. For the same compound, the “DAP in Na-Sol.” value in test [2] was 3.2.
The like results for `CCCCCCCCCCNC(C)=O` [Compound 84, N-Decyl acetamide] were, in that order, 8.1 and 3.8.
On to `CCC(O)CC(=O)CCc1ccccc1` (stereo not shown) [Compound 12, a 1-Ph-5-OH-3-heptanone], for which the “DAP in Broth” value in test [1] was 7.6. In addition, the “DAP in Na-Sol.” value in test [2] was 4.
Regarding `CC1CCC2(OC1)OC1CC3C4CCC5CC(OC6OC(CO)C(OC7OC(CO)C(O)C(OC8OC(CO)C(O)C(OC9OCC(O)C(O)C9O)C8O)C7O)C(OC7OCC(O)C(O)C7O)C6O)CCC5(C)C4CC(=O)C3(C)C1C2C` (stereo not shown) [Compound 37], the “DAP in Broth” value in test [1] was 8.1. Moreover, in test [2], the “DAP in Na-Sol.” value amounted to 3.7.
The like results for `C[C@]12CC[C@H](O)C[C@H]1CC[C@@H]1[C@@H]2CC[C@]2(C)[C@@H](C3=CC(=O)OC3)CC[C@]12O` [Compound 73, Digitoxigenin] were, in that order, 8.0 and 3.5.
The like results for `COC1CC(OC2CCC3(C=O)C(CCC4C3CCC3(C)C(C5=CC(=O)OC5)CCC43O)C2)OC(C)C1O` (stereo not shown) [Compound 77, Apocannoside] were, in that order, 8.1 and 3.4.
The like results for `CCCCC/C=C/C=C/C(O)CCCCCCCC(=O)O` (stereo not shown) [Compound 88, Dimorphecolic acid] were, in that order, 8.0 and 3.2.
As for `C=CCCCCCCCCCCCC(CC(O)COC(C)=O)OC(C)=O` (stereo not shown) [Compound 83, 16-Heptadecene-1,2,4-triol, 1,4-diacetate], in test [1], the “DAP in Broth” value turned out to be 8.1. In test [2], the “DAP in Na-Sol.” value is given as 4.2.
Regarding `CCCCCCCCC/C=C/C(=O)CCc1ccc(O)c(OC)c1` [Compound 2, [10]-Shogaol], in test [1], the “DAP in Broth” value is listed as 7.8. Further, in test [2], the “DAP in Na-Sol.” value was 3.5.
The corresponding values for `CCC=CC=CC(O)CC=CCCCCCCCC(=O)O` (stereo not shown) [Compound 86, 12-hydroxy-9,13,15-Octadecatrienoic acid] are 8.0 and 3.9.
The corresponding values for `C=CC(C)(O)CC[C@@]1(C)C2=C([C@H](OC(C)=O)[C@H](OC(C)=O)[C@H]1C)C(C)(C)CCC2` (stereo partly shown) [Compound 29, Vitetrifolin D] are 8.0 and 3.5.
Take `CC(C)(O)[C@@H](O)COc1c2ccoc2cc2oc(=O)ccc12` [Compound 63, Prangol]: the “DAP in Broth” value in test [1] worked out at 8.0. Besides, in test [2], the “DAP in Na-Sol.” value is on record as 3.5.
For the compound `COc1cc2c(c(OC)c1OC)-c1c(cc(OC)c(OC)c1OC)C[C@H](C)[C@H](C)C2` [Compound 45, Schisandrin A, Deoxyschizandrin], the “DAP in Broth” value in test [1] was found to be 8.2. Further, the “DAP in Na-Sol.” value in test [2] is on record as 3.5.
The like results for `CC/C=C\C/C=C\C/C=C\CCCCCCCC(=O)O` [Compound 89, Linolenic acid] were, in that order, 7.6 and 3.7.
As for `C=CC(C)(O)CC/C=C(\C)C(=O)OC1C(OCC2OC(OC(=O)C34CCC(C)(C)CC3C3=CCC5C6(C)CCC(OC7OC(COC8OCC(O)C(O)C8OC8OCC(O)C(O)C8O)C(O)C(O)C7O)C(C)(C)C6CCC5(C)C3(C)CC4O)C(OC3OC(C)C(OC4OCC(O)C(OC5OCC(O)C(O)C5O)C4O)C(O)C3O)C(OC(=O)/C(C)=C/CCC(C)(O)C=C)C2O)OC(C)C(O)C1O` (stereo not shown) [Compound 35], in test [1], the “DAP in Broth” value amounted to 8.1. Besides, in test [2], the “DAP in Na-Sol.” value is given as 3.7.
The like results for `C[C@@H]1C[C@@H]2O[C@@]3(O[C@@H]2C(C)(C)O)C(O)[C@@]2(C)C4CCC5C(C)(C)[C@@H](OC6OC[C@H](O)[C@@H](O)[C@@H]6O)CC[C@@]56C[C@@]46CC[C@]2(C)C13` (stereo partly drawn) [Compound 41, Cimigoside; b-D-Xylopyranoside] were, in that order, 7.5 and 3.9.
On to `COc1cc2c(c(OC)c1OC)-c1c(cc3c(c1OC)OCO3)C[C@H](C)[C@@](C)(O)C2` [Compound 44, Schizandrol B; Gomisin A], for which the “DAP in Broth” value in test [1] was 8.6. Also, the “DAP in Na-Sol.” value in test [2] amounted to 3.8.
The like results for `COc1c2ccoc2cc2oc(=O)ccc12` [Compound 62, Bergapten] were, in that order, 8.0 and 3.9.
